Assay results published in PubChem BioAssay (NCI).
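Grown in 96-well plates, cells were treated for 48 hours with each compound at five concentrations. Insufficient inhibition: endpoint recorded as highest concentration tested. Here, GI50 denotes the concentration required for 50% inhibition of growth. TGI denotes the concentration required for complete inhibition of growth.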

Tests used:
Experiment in all cases: DTP human tumour cell line panel, 48 h
[1] = tested on: MDA-MB-231 breast
[2] = tested on: NCI-H23 lung
[3] = tested on: IGROV1 ovarian
[4] = tested on: BT-549 breast
[5] = tested on: 786-0 renal
[6] = tested on: HCC-2998 colon
[7] = tested on: HT29 colon
[8] = tested on: SW-620 colon
[9] = tested on: UO-31 renal
[10] = tested on: SK-OV-3 ovarian
[11] = tested on: SK-MEL-28 melanoma
[12] = tested on: SF-539 CNS
[13] = tested on: CAKI-1 renal
[14] = tested on: NCI/ADR-RES ovarian
[15] = tested on: RXF 393 renal
[16] = tested on: HL-60(TB) leukemia
[17] = tested on: MALME-3M melanoma
[18] = tested on: SF-268 CNS
[19] = tested on: TK-10 renal
[20] = tested on: MDA-MB-435
[21] = tested on: SNB-75 CNS
[22] = tested on: A498 renal
[23] = tested on: KM12 colon
[24] = tested on: HOP-62 NSCLC
[25] = tested on: K-562 leukemia
[26] = tested on: UACC-62 melanoma
[27] = tested on: OVCAR-5 ovarian
[28] = tested on: CCRF-CEM leukemia
[29] = tested on: SN12C renal
[30] = tested on: OVCAR-4 ovarian
[31] = tested on: DU-145 prostate
[32] = tested on: ACHN renal
[33] = tested on: T-47D breast
[34] = tested on: M14 melanoma
[35] = tested on: SK-MEL-2 melanoma
[36] = tested on: HCT-116 colon
[37] = tested on: PC-3 prostate
[38] = tested on: NCI-H460 lung
[39] = tested on: EKVX NSCLC
[40] = tested on: SNB-19 CNS
[41] = tested on: HOP-92 NSCLC
[42] = tested on: HS 578T breast
[43] = tested on: MOLT-4 leukemia
[44] = tested on: UACC-257 melanoma
[45] = tested on: SK-MEL-5 melanoma
[46] = tested on: COLO 205 colon
[47] = tested on: HCT-15 colon
[48] = tested on: SF-295 CNS
[49] = tested on: RPMI-8226 leukemia
[50] = tested on: LOX IMVI melanoma
[51] = tested on: NCI-H226 lung
[52] = tested on: U251 CNS
[53] = tested on: A549 NSCLC
[54] = tested on: NCI-H522 lung
[55] = tested on: SR leukemia
[56] = tested on: MCF7 breast
[57] = tested on: OVCAR-8 ovarian

CN=C(N)N/N=C(\C)c1ccc2c(c1)Cc1ccccc1-2
GI50 [1]: 1.78 µM
TGI [1]: 4.31 µM
GI50 [2]: 2.84 µM
TGI [2]: 12.3 µM
GI50 [3]: 3.74 µM
TGI [3]: 19.5 µM
GI50 [4]: 10.2 µM
TGI [4]: 27.9 µM
GI50 [5]: 1.86 µM
TGI [5]: 3.74 µM
GI50 [6]: 1.67 µM
TGI [6]: 3.09 µM
GI50 [7]: 1.61 µM
TGI [7]: 3.39 µM
GI50 [8]: 1.43 µM
TGI [8]: 3.29 µM
GI50 [9]: 1.43 µM
TGI [9]: 2.89 µM
GI50 [10]: 1.61 µM
TGI [10]: 5.1 µM
GI50 [11]: 2.22 µM
TGI [11]: 4.63 µM
GI50 [12]: 1.66 µM
TGI [12]: 3.02 µM
GI50 [13]: 2.5 µM
TGI [13]: 8.82 µM
GI50 [14]: 2.02 µM
TGI [14]: 4.5 µM
GI50 [15]: 4.06 µM
TGI [15]: 66.5 µM
GI50 [16]: 0.399 µM
TGI [16]: 1.94 µM
GI50 [17]: 1.51 µM
TGI [17]: 3.02 µM
GI50 [18]: 2.13 µM
TGI [18]: 5.25 µM
GI50 [19]: 3.18 µM
TGI [19]: 14.8 µM
GI50 [20]: 1.64 µM
TGI [20]: 3.15 µM
GI50 [21]: 2 µM
TGI [21]: 7.01 µM
GI50 [22]: 2.89 µM
TGI [22]: 9.21 µM
GI50 [23]: 1.72 µM
TGI [23]: 3.47 µM
GI50 [24]: 1.66 µM
TGI [24]: 3.2 µM
GI50 [25]: 1.28 µM
TGI [25]: 2.69 µM
GI50 [26]: 1.5 µM
TGI [26]: 2.86 µM
GI50 [27]: 1.65 µM
TGI [27]: 3.96 µM
GI50 [28]: 1.73 µM
TGI [28]: 7.14 µM
GI50 [29]: 1.92 µM
TGI [29]: 5.38 µM
GI50 [30]: 3.98 µM
TGI [30]: 19.4 µM
GI50 [31]: 1.12 µM
TGI [31]: 3.17 µM
GI50 [32]: 1.78 µM
TGI [32]: 3.61 µM
GI50 [33]: 1.32 µM
TGI [33]: 2.92 µM
GI50 [34]: 1.65 µM
TGI [34]: 3.02 µM
GI50 [35]: 1.87 µM
TGI [35]: 3.81 µM
GI50 [36]: 1.43 µM
TGI [36]: 2.74 µM
GI50 [37]: 2.39 µM
TGI [37]: 10.3 µM
GI50 [38]: 0.556 µM
TGI [38]: 1.81 µM
GI50 [39]: 2.62 µM
TGI [39]: 13.9 µM
GI50 [40]: 3.46 µM
TGI [40]: 21.8 µM
GI50 [41]: 1.63 µM
TGI [41]: 5.67 µM
GI50 [42]: 3.17 µM
GI50 [43]: 0.352 µM
TGI [43]: 1.49 µM
GI50 [44]: 1.96 µM
TGI [44]: 3.74 µM
GI50 [45]: 1.61 µM
TGI [45]: 2.95 µM
GI50 [46]: 1.66 µM
TGI [46]: 3.02 µM
GI50 [47]: 1.83 µM
TGI [47]: 3.86 µM
GI50 [48]: 1.9 µM
TGI [48]: 4.32 µM
GI50 [49]: 1.72 µM
TGI [49]: 4.16 µM

COc1ccc2c(c1)/C(=N/OC(C)=O)c1c-2cnc2ccccc12
GI50 [1]: 22.1 µM
TGI [1]: 59.4 µM
GI50 [2]: 46.6 µM
TGI [2]: > 100 µM
GI50 [3]: 25.3 µM
TGI [3]: 52 µM
GI50 [4]: 49.5 µM
TGI [4]: > 100 µM
GI50 [5]: 17.8 µM
TGI [5]: 33.2 µM
GI50 [50]: 19 µM
TGI [50]: 38.6 µM
GI50 [51]: 33.5 µM
TGI [51]: > 100 µM
GI50 [6]: 39.1 µM
TGI [6]: > 100 µM
GI50 [7]: 43.1 µM
TGI [7]: > 100 µM
GI50 [8]: 67.1 µM
TGI [8]: > 100 µM
GI50 [9]: 22.2 µM
TGI [9]: 46.6 µM
GI50 [10]: 40.4 µM
TGI [10]: > 100 µM
GI50 [11]: 31.6 µM
TGI [11]: 77.2 µM
GI50 [52]: 19.3 µM
TGI [52]: 39.4 µM
GI50 [12]: 41.9 µM
TGI [12]: > 100 µM
GI50 [14]: 36.9 µM
TGI [14]: > 100 µM
GI50 [15]: 26.4 µM
TGI [15]: 68.5 µM
GI50 [16]: 19.6 µM
TGI [16]: 67 µM
GI50 [53]: 27.4 µM
TGI [53]: 73.8 µM
GI50 [17]: 16.2 µM
TGI [17]: 39.1 µM
GI50 [18]: 24 µM
TGI [18]: 68.7 µM
GI50 [54]: 22.3 µM
TGI [54]: 65.5 µM
GI50 [19]: 20.4 µM
TGI [19]: 54.8 µM
GI50 [21]: 37.4 µM
TGI [21]: > 100 µM
GI50 [22]: 29.3 µM
TGI [22]: 82 µM
GI50 [23]: 25 µM
TGI [23]: 78.7 µM
GI50 [24]: 20.8 µM
TGI [24]: 46.6 µM
GI50 [25]: 24.4 µM
TGI [25]: 73.1 µM
GI50 [26]: 16.6 µM
TGI [26]: 36.3 µM
GI50 [27]: 21.9 µM
TGI [27]: 55.6 µM
GI50 [28]: 28.5 µM
TGI [28]: > 100 µM
GI50 [29]: 18.9 µM
TGI [29]: 36.3 µM
GI50 [30]: 31.7 µM
TGI [30]: 83.6 µM
GI50 [55]: 13.8 µM
TGI [55]: 38 µM
GI50 [31]: 36 µM
TGI [31]: > 100 µM
GI50 [32]: 20.4 µM
TGI [32]: 45.4 µM
GI50 [33]: 19.9 µM
TGI [33]: 66.3 µM
GI50 [34]: 29.6 µM
TGI [34]: > 100 µM
GI50 [35]: 26.9 µM
TGI [35]: 64.6 µM
GI50 [56]: 39.7 µM
TGI [56]: > 100 µM
GI50 [57]: 38.4 µM
TGI [57]: > 100 µM
GI50 [36]: 21 µM
TGI [36]: 48.1 µM
GI50 [37]: 21.3 µM
TGI [37]: 48 µM
GI50 [38]: 30.3 µM
TGI [38]: > 100 µM
GI50 [39]: 23.1 µM
TGI [39]: > 100 µM
GI50 [40]: 36.6 µM
TGI [40]: > 100 µM
GI50 [41]: 18.3 µM
TGI [41]: 37.2 µM
GI50 [42]: 39.8 µM
TGI [42]: > 100 µM
GI50 [43]: 20 µM
TGI [43]: 92.2 µM
GI50 [44]: 61.1 µM
TGI [44]: > 100 µM
GI50 [45]: 17.6 µM
TGI [45]: 48.5 µM
GI50 [46]: 26.5 µM
TGI [46]: 94.7 µM
GI50 [47]: 34.9 µM
TGI [47]: > 100 µM
GI50 [49]: 22.3 µM
TGI [49]: 81.5 µM
